{"source": "paper PMC6344527", "about": "“Toxicity and possible mechanisms of action of honokiol from Magnolia denudata seeds against four mosquito species” (Scientific Reports, 2019)", "origin": "cited, not measured here", "design": "method as in PMID 20877235", "conditions": "cited from earlier work"}
{"smiles": "C=CCc1ccc(O)c(-c2ccc(O)c(CC=C)c2)c1", "note": "[Honokiol, 2-(4-hydroxy-3-prop-2-enyl-phenyl)-4-prop-2-enyl-phenol]", "values": [{"measurement": "toxicity in animal models", "value": "no toxicity or serious adverse effects"}]}
